The data set relates to db/db mice. Nature of the data set: Histopathological assessment (H&E stain). In kind it is in vivo. The text has this: For histopathological assessment, all mice were sacrificed by 95% CO2 asphyxiation at the end of the study period. Their brain, liver, kidney, pancreas, and epididymal fat pads were removed, fixed in 10% phosphate-buffered formalin, and embedded in paraffin. Tissues embedded in paraffin were cut into […] sections that were then stained with hematoxylin-eosin (i.e., H&E stain).

For `C[C@@H](O)[C@H]1C(=O)N2C(C(=O)O)=C(S[C@@H]3CN[C@H](C(=O)Nc4cccc(C(=O)O)c4)C3)[C@H](C)[C@H]12` [DMH, ertapenem], the “Injuries in brain, liver, kidney, pancreas, and epididymal fat pads” value (Ex 1, after 3 weeks 0.41 mg/g bw/day i.p.) was “no significant injuries”. Besides, the “Severity and incidence of liver glycogen storage vs DB group” value (Ex 1, hepatocyte cytoplasm around central venous region) was “slighter”. For the same molecule, the “Injuries in liver, kidney, pancreas, and epididymal fat pads” value (Ex 2) is reported as “No significant injuries”.
With `CN(C)C(=N)N=C(N)N` [Met, metformin], the “Kidney histological changes (tubular degeneration and necrosis, mineralization, hyaline cast)” value (Ex 2, metformin-treated vs ertapenem-treated mice) was “more apparent”.

These data come from patent publication US11419852B2, “Beta-lactam compounds or salts thereof for use in long-acting prevention or treatment of a glucose metabolism disorder” (GLYCOLYSIS BIOMED CO., LTD., priority 2019, dated 2022).
